Assays:
[1] = test system: PSA mRNA expression in LNAR cells; assay: PSA mRNA expression in LNAR cells (hormone refractory, over-express AR); type: cell-based
From the text: The cell line LNAR was used, which has been engineered to over-express AR (14). LNAR cells over-express AR and form hormone refractory tumors when xenografted in mice (14).

GILZ enhancer GRE1 = assay: Quantitative DNase I footprint titration on pKAM5 fragment, GRE1; type: binding
Procedure: Detailed experimental protocols are reported elsewhere (44). The GILZ enhancer contains two GREs separated by 22 base pairs (46). GRE 1 is 5'-[NT]=3' (SEQ ID NO:5) and GRE 2 is […] ID NO:7). The DNA binding of polyamides 1 and 2 on these sequences was measured by quantitative DNase I footprint. […] […]).

[2] = test system: FKBP5 mRNA expression in LNCaP cells; assay: DHT-induced FKBP5 mRNA in LNCaP cells; type: cell-based
[3] = test system: binding of LNCaP nuclear extract factors to the ARE site in the PSA promoter; assay: Electrophoretic mobility shift assay with DHT-stimulated LNCaP nuclear extract; type: biochemical
Procedure: containing the PSA promoter ARE (underlined) was end-labeled with ^32P and annealed to its complement. Polyamides 1 and 2 were incubated with the duplex for 3 h in previously optimized buffer conditions (45). Nuclear extract from DHT-treated LNCaP cells (Genetex, San Antonio, Tex.) was then added for an additional 45 min. Complexes were run on a 5% polyacrylamide gel and visualized on a phosphorimager.
The effects of polyamides 1 and 2 on the binding of factors present in the nuclear extract isolated from DHT-stimulated LNCaP cells to the ARE site in the PSA promoter was measured by an electrophoretic mobility shift assay (FIG. 8D).

LNCaP xenografts = LNCaP xenografts in male NSG mice; type: in vivo
Procedure: All mice experiments were conducted under an approved protocol by the Institutional Animal Care and Use Committee of the California Institute of Technology. Male NOD scid gamma (NSG) mice were purchased from The Jackson Laboratory. The animals were individually caged and maintained on a standard light-dark cycle. NSG mice were engrafted with LNCaP cells (2.5 million cells) in a mixture of 1:1 media and matrigel in the left flank. Tumors were grown to ˜100 mm^3 (L×W^2) before beginning treatment with compound or vehicle. Py-Im polyamide 77 was administered once every 3 days in a 5% DMSO:PBS vehicle solution until the experiment endpoint.
To investigate if polyamide 77 could be detected in peripheral blood after SC injections, 120 nmol of 77 (in 5% DMSO/PBS) was injected into the right flank of four C57BL/6 mice. Blood was collected from anesthetized mice via retroorbital collection at 5 minutes, 4 h, and 12 h after injection, then processed by methods previously described and analyzed by HPLC (35). For measurement of serum PSA (KLK3) and uric acid, blood was collected from anesthetized mice via retroorbital collection at experimental endpoint and serum was separated from blood by centrifugation. Serum PSA (KLK3) was measured by ELISA (R&D systems) according to manufacturer's instructions. Uric acid was measured as described (36).
Tumors were resected immediately after euthanasia and fixed in neutral buffered formalin. Selected samples were embedded in paraffin, sectioned and stained with hematoxylin and eosin (H&E). Selected sections were assessed by deoxynucleotidyltransferase dUTP nick-end labeling (TUNEL) as described (45).
Mice experiments were conducted under an approved protocol by the Institutional Animal Care and Use Committee of the California Institute of Technology. Male C57BL6/J mice and male NSG mice were purchased from The Jackson Laboratory. All animals were maintained on a standard light-dark cycle. LNCaP cells (2.5 million cells) were engrafted in a mixture of 1:1 media and matrigel in the left flank of NSG mice. Tumors were allowed grow to ˜200 mm^3 (0.5×L×W^2) before treatment. Py-Im polyamide 78 was administered by SC injection once every 3 d at 1 mg/kg in a 20% (vol/vol) DMSO:Normal saline vehicle solution for 6 injections. Animals were sacrificed two days after the final injection. Animal weight and general health were monitored daily. Fourteen animals were used for each treatment group.

RPB1 = RPB1 protein ELISA in LNCaP cells; type: cell-based; details: polyamide 10 μM 72 hr; doxorubicin 1 μM 24 hr
Procedure: […] Cells treated with DMSO vehicle and 1 μM doxorubicin for 24 h were used as control. Cellular RBP1 levels were determined by a RPB1 specific ELISA kit (Cusabio Life Sciences) according to manufacturer's instructions. Total cellular p53 protein level was determined with a pan-p53 ELISA kit (Roche) according to manufacturer's instructions. Assays were performed in biological triplicates.

[4] = 20 nmol SC every three days, three injections

CN(CCCNC(=O)c1cccc(C(=O)O)c1)CCCNC(=O)c1cc(NC(=O)c2cc(NC(=O)c3cc(NC(=O)c4nc(NC(=O)[C@H](N)CCNC(=O)c5cc(NC(=O)c6cc(NC(=O)c7cc(NC(=O)c8nccn8C)cn7C)cn6C)cn5C)cn4C)cn3C)cn2C)cn1C [Polyamide 1, ImPyPyPy-2-(R)H^2Nγ-ImPyPyPy-NHMe-IPA]
effect on DHT-induced PSA mRNA expression in LNAR cells [1]: maintains efficacy | Ka (GILZ enhancer GRE1): 1.9±0.8×10^10 | inhibition of DHT-induced expression of FKBP5 [2]: ≈ 60% | concentration inhibiting binding to the labeled duplex [3]: ≥ 10 nM | tumor weight, mean (LNCaP xenografts; [4]): 112 mg | tumor weight, median (LNCaP xenografts; [4]): 94 mg | tumor weight, range (LNCaP xenografts; [4]): 47 to 201 mg | body weight, LNCaP tumor-bearing NSG mice (LNCaP xenografts; 20 nmol, three injections): exhibited weight loss | distress and weight, tumor-free NSG mice (LNCaP xenografts; 20 nmol, three injections): no signs of distress or weight loss | reduction of tumor growth (LNCaP xenografts; after three rounds of treatment, vs vehicle): 64% | serum PSA post-treatment (LNCaP xenografts; compared to vehicle): lower | immunohistological analysis of tumors (LNCaP xenografts; mouse, in vivo): evidence of cell death by TUNEL stain | serum uric acid (LNCaP xenografts; tumor bearing mice, vs vehicle and non-tumor bearing treated mice): increases serum uric acid | RPB1 protein (RPB1): decreases
